Measurements: US20180153995A1, “USE OF ANTIMICROBIAL POLYMERS FOR RE-SENSITIZATION OF MICROORGANISMS UPON EMERGENCE OF RESISTANCE TO ANTI-MICROBIAL AGENTS” (Technion Research & Development Foundation Limited, priority 2008, published 2018)
Read-outs that look alike come from different tables or passages of the source.

Columns and labels:
MRSA 15852 = assay type: cell-based, Staphylococcus aureus; conditions: S. aureus 15852
Description: The fractionary inhibitory (FIC) concentration index for combinations of two antimicrobial agents was calculated as follows: FIC index=FICA+FICB=A/MICA+B/MICB where A and B are the MIC values of agent A and agent B in the combination, MICA and MICB are the MICs of agent A and agent B alone, and FICA and FICB are the FICs of agent A and agent B.
The FIC indexes were interpreted as follows: less than 0.5 indicates a clear re-sensitizing effect; from 0.5 to 4 indicates a marginal or null re-sensitizing effect; and over 4 indicates antagonism.

S. aureus 15819 = assay: Antibiotic MIC by microdilution with or without sub-MIC polymer; assay type: cell-based, Staphylococcus aureus; conditions: S. aureus 15819
Description: MICs were determined by microdilution susceptibility testing in 96-well plates (Nunc) using inocula of 10^5 bacteria per ml. One hundred (100) μl of a bacterial suspension were added to 100 μl of culture medium (control) or to 100 μl of culture medium containing various antibiotic and C12(5-ene)KKNC12KNH2 (SEQ ID NO: 2) concentrations in 2-fold serial dilutions. Inhibition of proliferation was determined by optical density measurements at 620 nm after an incubation period of 24 hours at 37° C.

[1] = system: E. coli AB301 (wild type); assay: Erythromycin MIC with or without sub-MIC polymer; assay type: cell-based, Escherichia coli
[2] = system: E. coli N282 (L4 mutation); assay type: cell-based, Escherichia coli; conditions: E. coli N282 L4 mutation
[3] = system: E. coli K-12 efflux knockout mutant; assay type: cell-based, Escherichia coli; conditions: E. coli AG100A (efflux−); for Antibiotic MIC in presence of C12K(NC8K)7NH2 (SEQ ID NO: 4), +¼ MIC: polymer at ¼ of its MIC (Table 16); for Antibiotic MIC in presence of C12K(NC8K)7NH2 (SEQ ID NO: 4), +½ MIC: polymer at ½ of its MIC (Table 16); for Antibiotic MIC in presence of C12K(NC8K)7NH2 (SEQ ID NO: 4), +⅓ MIC: polymer at ⅓ of its MIC (Table 16); for Antibiotic MIC in presence of the OAK, +¼ MIC: the OAK at ¼ of its MIC (Table 17); for Antibiotic MIC in presence of the OAK, +½ MIC: the OAK at ½ of its MIC (Table 17); for Antibiotic MIC in presence of the OAK, +⅓ MIC: the OAK at ⅓ of its MIC (Table 17)
Description: (§1) MICs were determined by microdilution susceptibility testing in 96-well plates (by Nunc) using inocula of 10^5 bacteria per ml. Cell populations were evaluated by optical density measurements at 620 nm and were calibrated against a set of standards. Hundred (100) μl of a bacterial suspension were added to 100 μl of culture medium (control) or to 100 μl of culture medium containing various polymer concentrations in 2-fold serial dilutions. Inhibition of proliferation was determined by optical density measurements at 620 nm after an incubation period of 24 hours at 37° C.

P. aeruginosa 8732 = assay: Antibiotic MIC by microdilution with or without sub-MIC polymer; assay type: cell-based, Pseudomonas aeruginosa
Description: as §1
Inhibition of proliferation was determined by optical density measurements at 620 nm after an incubation period of 24 hours at 37° C.

E. coli AG100 = assay: Antibiotic MIC with or without sub-MIC polymer (Tables 20, 21); assay type: cell-based, Escherichia coli
E. coli AG100/ks = assay: as above; assay type: cell-based, Escherichia coli
[4] = +¼ MIC (1.6 μM) C12(5-ene)KKNC12KNH2
[5] = +½ MIC (3.12 μM) C12(5-ene)KKNC12KNH2
[6] = +⅓ MIC (2.1 μM) C12(5-ene)KKNC12KNH2
[7] = +¼ MIC (1.6 μM) C12K(KNC12K)3NH2
[8] = +⅓ MIC (2.1 μM) C12K(KNC12K)3NH2

CC[C@H]1OC(=O)[C@H](C)[C@@H](O[C@H]2C[C@@](C)(OC)[C@@H](O)[C@H](C)O2)[C@H](C)[C@@H](O[C@@H]2O[C@H](C)C[C@H](N(C)C)[C@H]2O)[C@](C)(O)C[C@@H](C)C(=O)[C@H](C)[C@@H](O)[C@]1(C)O [Erythromycin, erythromycin]
4 to 8 µg/mL: Antibiotic MIC ([1]; +½ MIC C12K(NC8K)7NH2) | Antibiotic MIC, None ([3]; antibiotic alone (Table 16)) | Antibiotic MIC, None ([3]; antibiotic alone (Table 17)) | Antibiotic MIC in presence of C12K(NC8K)7NH2 (SEQ ID NO: 4), +¼ MIC [3] | Antibiotic MIC in presence of the OAK, +¼ MIC [3]
8 µg/mL: Antibiotic MIC ([1]; +½ MIC C12K(NC8K)5NH2)
32 µg/mL: Antibiotic MIC ([1]; +¼ MIC C12K(NC8K)5NH2) | Antibiotic MIC ([1]; +¼ MIC C12K(NC8K)7NH2)
0.5 µg/mL: Antibiotic MIC (S. aureus 15819; [7]) | Antibiotic MIC (S. aureus 15819; +¼ MIC (1.6 μM) C12KKNC12KNH2) | Antibiotic MIC (S. aureus 15819; +½ MIC (3.12 μM) C12KKNC12KNH2) | Antibiotic MIC (S. aureus 15819; +⅓ MIC (2.1 μM) C12KKNC12KNH2) | Antibiotic MIC (S. aureus 15819; no polymer (None), Table 11) | Antibiotic MIC (S. aureus 15819; no polymer (None), Table 13)
0.25 µg/mL: Antibiotic MIC (S. aureus 15819; [4]) | Antibiotic MIC (S. aureus 15819; [5]) | Antibiotic MIC (S. aureus 15819; [6]) | Antibiotic MIC (S. aureus 15819; [8]) | Antibiotic MIC (S. aureus 15819; no polymer (None), Table 8)
>512 µg/mL: Antibiotic MIC (MRSA 15852; [4]) | Antibiotic MIC (MRSA 15852; +¼ MIC (1.6 μM) C12KKNC12KNH2) | Antibiotic MIC (MRSA 15852; [5]) | Antibiotic MIC (MRSA 15852; +½ MIC (3.12 μM) C12KKNC12KNH2) | Antibiotic MIC (MRSA 15852; [6]) | Antibiotic MIC (MRSA 15852; +⅓ MIC (2.1 μM) C12KKNC12KNH2) | Antibiotic MIC (MRSA 15852; no polymer (None), Table 8) | Antibiotic MIC (MRSA 15852; no polymer (None), Table 11)
1 to 2 µg/mL: Antibiotic MIC in presence of the OAK, +½ MIC [3]
16 to 32 µg/mL: Antibiotic MIC ([1]; +⅓ MIC C12K(NC8K)5NH2) | Antibiotic MIC ([1]; +⅓ MIC C12K(NC8K)7NH2)
8 to 16 µg/mL: Antibiotic MIC ([2]; +½ MIC C12K(NC8K)5NH2)
2 to 4 µg/mL: Antibiotic MIC in presence of C12K(NC8K)7NH2 (SEQ ID NO: 4), +⅓ MIC [3]
512 µg/mL: Antibiotic MIC ([2]; +¼ MIC C12K(NC8K)5NH2) | Antibiotic MIC ([2]; +¼ MIC C12K(NC8K)7NH2) | Antibiotic MIC ([2]; +⅓ MIC C12K(NC8K)7NH2) | Antibiotic MIC ([2]; no OAK, Table 18) | Antibiotic MIC ([2]; no OAK, Table 19)
2 µg/mL: Antibiotic MIC in presence of C12K(NC8K)7NH2 (SEQ ID NO: 4), +½ MIC [3]
4 µg/mL: Antibiotic MIC in presence of the OAK, +⅓ MIC [3]

Cc1onc(-c2ccccc2)c1C(=O)N[C@@H]1C(=O)N2[C@@H]1SC(C)(C)[C@@H]2C(=O)O [Oxacillin, oxacillin]
0.5 to 1 µg/mL: Antibiotic MIC (S. aureus 15819; +½ MIC (3.12 μM) C12K(KNC12K)3NH2) | Antibiotic MIC, None ([3]; antibiotic alone (Table 16)) | Antibiotic MIC, None ([3]; antibiotic alone (Table 17)) | Antibiotic MIC in presence of C12K(NC8K)7NH2 (SEQ ID NO: 4), +¼ MIC [3]
1 µg/mL: Antibiotic MIC (S. aureus 15819; [5])
32 to 64 µg/mL: Antibiotic MIC in presence of C12K(NC8K)5NH2 (SEQ ID NO: 3), +½ MIC (E. coli AG100; polymer at ½ of its MIC) | Antibiotic MIC in presence of C12K(NC8K)7NH2 (SEQ ID NO: 4), +½ MIC (E. coli AG100; polymer at ½ of its MIC)
0.5 µg/mL: Antibiotic MIC in presence of the OAK, +¼ MIC [3] | Antibiotic MIC in presence of the OAK, +⅓ MIC [3]
0.25 µg/mL: Antibiotic MIC in presence of C12K(NC8K)7NH2 (SEQ ID NO: 4), +½ MIC [3] | Antibiotic MIC in presence of C12K(NC8K)7NH2 (SEQ ID NO: 4), +⅓ MIC [3] | Antibiotic MIC in presence of the OAK, +½ MIC [3]
2 µg/mL: Antibiotic MIC (S. aureus 15819; [4]) | Antibiotic MIC (S. aureus 15819; +½ MIC (3.12 μM) C12KKNC12KNH2) | Antibiotic MIC (S. aureus 15819; [6]) | Antibiotic MIC (S. aureus 15819; [8])
256 µg/mL: Antibiotic MIC (MRSA 15852; +¼ MIC (1.6 μM) C12KKNC12KNH2) | Antibiotic MIC (MRSA 15852; +½ MIC (3.12 μM) C12KKNC12KNH2) | Antibiotic MIC (MRSA 15852; +⅓ MIC (2.1 μM) C12KKNC12KNH2) | Antibiotic MIC (MRSA 15852; no polymer (None), Table 11) | Antibiotic MIC in presence of C12K(NC8K)5NH2 (SEQ ID NO: 3), +¼ MIC (E. coli AG100; polymer at ¼ of its MIC)
4 µg/mL: Antibiotic MIC (S. aureus 15819; [7]) | Antibiotic MIC (S. aureus 15819; no polymer (None), Table 8)
512 µg/mL: Antibiotic MIC, None (E. coli AG100; antibiotic alone (Table 20)) | Antibiotic MIC, None (E. coli AG100; antibiotic alone (Table 21))
8 µg/mL: Antibiotic MIC (S. aureus 15819; +¼ MIC (1.6 μM) C12KKNC12KNH2) | Antibiotic MIC (S. aureus 15819; +⅓ MIC (2.1 μM) C12KKNC12KNH2) | Antibiotic MIC (S. aureus 15819; no polymer (None), Table 11) | Antibiotic MIC (S. aureus 15819; no polymer (None), Table 13)
>512 µg/mL: Antibiotic MIC (P. aeruginosa 8732) | Antibiotic MIC (P. aeruginosa 8732; P. aeruginosa 8732, +½ MIC (3.12 μM) C16(9-ene)KKNC12KNH2) | Antibiotic MIC (P. aeruginosa 8732; P. aeruginosa 8732, +⅓ MIC (2.1 μM) C16(9-ene)KKNC12KNH2) | Antibiotic MIC (P. aeruginosa 8732; P. aeruginosa 8732, no polymer (None), Table 10) | Antibiotic MIC, None (E. coli AG100/ks; antibiotic alone (Table 20)) | Antibiotic MIC, None (E. coli AG100/ks; antibiotic alone (Table 21)) | Antibiotic MIC in presence of C12K(NC8K)5NH2 (SEQ ID NO: 3), +¼ MIC (E. coli AG100/ks; polymer at ¼ of its MIC) | Antibiotic MIC in presence of C12K(NC8K)7NH2 (SEQ ID NO: 4), +¼ MIC (E. coli AG100/ks; polymer at ¼ of its MIC) | Antibiotic MIC in presence of C12K(NC8K)5NH2 (SEQ ID NO: 3), +½ MIC (E. coli AG100/ks; polymer at ½ of its MIC) | Antibiotic MIC in presence of C12K(NC8K)7NH2 (SEQ ID NO: 4), +½ MIC (E. coli AG100/ks; polymer at ½ of its MIC) | Antibiotic MIC in presence of C12K(NC8K)5NH2 (SEQ ID NO: 3), +⅓ MIC (E. coli AG100/ks; polymer at ⅓ of its MIC) | Antibiotic MIC in presence of C12K(NC8K)7NH2 (SEQ ID NO: 4), +⅓ MIC (E. coli AG100/ks; polymer at ⅓ of its MIC)
